In patent US20120172359A1 (NOVARTIS AG, priority 2010, published 2012):
Structures can show the parent of a compound that is named as a salt.

Target: Human BACE-1 (Homo sapiens, UniProt P56817)
Assay: Test 1: Inhibition of Human BACE-1
Format: biochemical
Conditions: Test 1; recombinant BACE-1 (extracellular domain), acetate buffer pH 4.5, 1 hour with test compound at room temperature, fluorescence-quenched peptide substrate; read-out: Bace IC50

Chain of Human BACE-1 (P56817 46-457 limits assumed): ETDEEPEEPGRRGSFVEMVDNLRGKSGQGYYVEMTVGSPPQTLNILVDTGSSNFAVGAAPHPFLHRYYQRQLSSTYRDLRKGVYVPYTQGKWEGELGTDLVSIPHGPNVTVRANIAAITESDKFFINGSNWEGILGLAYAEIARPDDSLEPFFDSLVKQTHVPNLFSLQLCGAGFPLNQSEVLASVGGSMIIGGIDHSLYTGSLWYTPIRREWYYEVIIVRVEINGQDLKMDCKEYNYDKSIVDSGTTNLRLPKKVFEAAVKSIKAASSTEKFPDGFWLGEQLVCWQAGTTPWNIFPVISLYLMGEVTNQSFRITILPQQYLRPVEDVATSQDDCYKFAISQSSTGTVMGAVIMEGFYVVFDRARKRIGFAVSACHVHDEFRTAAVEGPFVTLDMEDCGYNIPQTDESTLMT

For `CC1(c2cccc(NC(=O)c3cnc(O)cn3)c2)COCC(N)=N1` (centres unmarked) [Example 19, 5-Hydroxy-pyrazine-2-carboxylic acid [3-(5-amino-3-methyl-3,6-dihydro-2H-[1,4]oxazin-3-yl)-phenyl]-amide], the IC50 was 2 µM.
For `CC1(c2cccc(NC(=O)c3cc(Br)co3)c2)COCC(N)=N1` (centres unmarked) [Example 20, 4-Bromo-furan-2-carboxylic acid [3-(5-amino-3-methyl-3,6-dihydro-2H-[1,4]oxazin-3-yl)-phenyl]-amide], the IC50 was 0.35 µM.
Compound `CC1(c2cccc(NC(=O)c3coc(C(F)(F)F)c3)c2)COCC(N)=N1` (centres unmarked) [Example 23, 5-Trifluoromethyl-furan-3-carboxylic acid [3-(5-amino-3-methyl-3,6-dihydro-2H-[1,4]oxazin-3-yl)-phenyl]-amide] has an IC50 of 11 µM.
For `CC1(c2cccc(NC(=O)c3ccc(Br)cc3)c2)COCC(N)=N1` (centres unmarked) [Example 24, N-[3-(5-Amino-3-methyl-3,6-dihydro-2H-[1,4]oxazin-3-yl)-phenyl]-4-bromo-benzamide], the IC50 was 0.97 µM.
`CC1(c2cccc(NC(=O)C3CCCCC3)c2)COCC(N)=N1` (centres unmarked) [Example 25, reference compound] was tested, and the IC50 was over 130 µM.
`CC1(c2cccc(NC(=O)C3CCC(F)(F)CC3)c2)COCC(N)=N1` (centres unmarked) [Example 26, reference compound] showed an IC50 of over 130 µM.
Compound `Cc1ccc(C(=O)Nc2cccc(C3(C)COCC(N)=N3)c2)nc1` (centres unmarked) [Example 27, 5-Methyl-pyridine-2-carboxylic acid [3-(5-amino-3-methyl-3,6-dihydro-2H-[1,4]oxazin-3-yl)-phenyl]-amide] has an IC50 of 1.4 µM.
`CC1(c2cccc(NC(=O)c3cccnc3)c2)COCC(N)=N1` (centres unmarked) [Example 28, N-[3-(5-Amino-3-methyl-3,6-dihydro-2H-[1,4]oxazin-3-yl)-phenyl]-nicotinamide] showed an IC50 of 60 µM.
For `Cc1cc(Br)cnc1C(=O)Nc1cccc([C@]2(C)COCC(=N)N2)c1` [Example 29, 5-Bromo-3-methyl-pyridine-2-carboxylic acid [3-((R)-5-amino-3-methyl-3,6-dihydro-2H-[1,4]oxazin-3-yl)-phenyl]-amide], the IC50 was 0.056 µM.
Compound `COc1ccc(C(=O)Nc2cccc([C@]3(C)COCC(N)=N3)c2)nc1` [Example 30, 5-Methoxy-pyridine-2-carboxylic acid [3-((R)-5-amino-3-methyl-3,6-dihydro-2H-[1,4]oxazin-3-yl)-phenyl]-amide] has an IC50 of 0.33 µM.
With `NC1=NC(CF)(c2cccc(NC(=O)c3ccc(Br)cn3)c2)COC1` (centres unmarked) [Example 31, 5-Bromo-pyridine-2-carboxylic acid [3-(5-amino-3-fluoromethyl-3,6-dihydro-2H-[1,4]oxazin-3-yl)-phenyl]-amide] the IC50 was 0.16 µM.
Work on `NC1=NC(CF)(c2cc(Cl)cc(NC(=O)c3ccc(Br)cn3)c2)COC1` (centres unmarked) [Example 32, 5-Bromo-pyridine-2-carboxylic acid [3-(5-amino-3-fluoromethyl-3,6-dihydro-2H-[1,4]oxazin-3-yl)-5-chloro-phenyl]-amide] yielded an IC50 of 1.4 µM.
For `NC1=N[C@](CF)(c2cccc(NC(=O)c3ccc(Br)cn3)c2)COC1` [Example 33, 5-Bromo-pyridine-2-carboxylic acid [3-((R)-5-amino-3-fluoromethyl-3,6-dihydro-2H-[1,4]oxazin-3-yl)-phenyl]-amide], the IC50 was 0.13 µM.
Work on `NC1=NC(c2cccc(NC(=O)c3ccc(Br)cn3)c2)(C(F)F)COC1` (centres unmarked) [Example 34, 5-Bromo-pyridine-2-carboxylic acid [3-(5-amino-3-difluoromethyl-3,6-dihydro-2H-[1,4]oxazin-3-yl)-phenyl]-amide hydrochloride] yielded an IC50 of 0.56 µM.
Compound `N#Cc1ccc(C(=O)Nc2cccc(C3(C(F)F)COCC(N)=N3)c2)nc1` (centres unmarked) [Example 36, 5-Cyano-pyridine-2-carboxylic acid [3-(5-amino-3-difluoromethyl-3,6-dihydro-2H-[1,4]oxazin-3-yl)-phenyl]-amide] has an IC50 of 0.35 µM.
`Cc1cc(Br)cnc1C(=O)Nc1cccc(C2(C(F)F)COCC(N)=N2)c1` (centres unmarked) [Example 37, 5-Bromo-3-methyl-pyridine-2-carboxylic acid [3-(5-amino-3-difluoromethyl-3,6-dihydro-2H-[1,4]oxazin-3-yl)-phenyl]-amide] was tested, and the IC50 was 0.12 µM.
`NC1=NC(c2cccc(NC(=O)c3ccc(C(F)(F)F)cn3)c2)(C(F)F)COC1` (centres unmarked) [Example 39, 5-Trifluoromethyl-pyridine-2-carboxylic acid [3-(5-amino-3-difluoromethyl-3,6-dihydro-2H-[1,4]oxazin-3-yl)-phenyl]-amide] showed an IC50 of 0.78 µM.
`NC1=NC(c2cccc(NC(=O)c3ncc(C(F)(F)F)cc3Cl)c2)(C(F)F)COC1` (centres unmarked) [Example 40, 3-Chloro-5-trifluoromethyl-pyridine-2-carboxylic acid [3-(5-amino-3-difluoromethyl-3,6-dihydro-2H-[1,4]oxazin-3-yl)-phenyl]amide] gave an IC50 of 1 µM.
With `Cc1cc(Cl)cnc1C(=O)Nc1cccc(C2(C(F)F)COCC(N)=N2)c1` (centres unmarked) [Example 41, 5-Chloro-3-methyl-pyridine-2-carboxylic acid [3-(5-amino-3-difluoromethyl-3,6-dihydro-2H-[1,4]oxazin-3-yl)-phenyl]-amide] the IC50 was 0.35 µM.
`NC1=NC(c2cc(NC(=O)c3ccc(Br)cn3)ccc2F)(C(F)F)COC1` (centres unmarked) [Example 42, 5-Bromo-pyridine-2-carboxylic acid [3-(5-amino-3-difluoromethyl-3,6-dihydro-2H-[1,4]oxazin-3-yl)-4-fluoro-phenyl]-amide hydrochloride] gave an IC50 of 0.056 µM.
Compound `NC1=NC(c2cc(NC(=O)c3ccc(Cl)cn3)ccc2F)(C(F)F)COC1` (centres unmarked) [Example 43, 5-Chloro-pyridine-2-carboxylic acid [3-(5-amino-3-difluoromethyl-3,6-dihydro-2H-[1,4]oxazin-3-yl)-4-fluoro-phenyl]-amide] has an IC50 of 0.062 µM.
In the case of `Cc1cc(Cl)cnc1C(=O)Nc1ccc(F)c([C@]2(C(F)F)COCC(N)=N2)c1` [Example 44, 5-Chloro-3-methyl-pyridine-2-carboxylic acid [3-((R)-5-amino-3-difluoromethyl-3,6-dihydro-2H-[1,4]oxazin-3-yl)-4-fluoro-phenyl]-amide], the IC50 is reported as 0.019 µM.
Work on `Cc1cc(Br)cnc1C(=O)Nc1ccc(F)c([C@]2(C(F)F)COCC(N)=N2)c1` [Example 45, 5-Bromo-3-methyl-pyridine-2-carboxylic acid [3-((R)-5-amino-3-difluoromethyl-3,6-dihydro-2H-[1,4]oxazin-3-yl)-4-fluoro-phenyl]amide] yielded an IC50 of 0.016 µM.
Compound `NC1=N[C@@](c2cc(NC(=O)c3ncc(C(F)(F)F)cc3Cl)ccc2F)(C(F)F)COC1` [Example 46, 3-Chloro-5-trifluoromethyl-pyridine-2-carboxylic acid [3-((R)-5-amino-3-difluoromethyl-3,6-dihydro-2H-[1,4]oxazin-3-yl)-4-fluoro-phenyl]-amide] has an IC50 of 0.071 µM.
`NC1=N[C@@](c2cc(NC(=O)c3ccc(C(F)(F)F)cn3)ccc2F)(C(F)F)COC1` [Example 47, 5-Trifluoromethyl-pyridine-2-carboxylic acid [3-((R)-5-amino-3-difluoromethyl-3,6-dihydro-2H-[1,4]oxazin-3-yl)-4-fluoro-phenyl]-amide] gave an IC50 of 0.056 µM.
`Cc1cnc(C(=O)Nc2ccc(F)c([C@]3(C(F)F)COCC(N)=N3)c2)cn1` [Example 48, 5-Methyl-pyrazine-2-carboxylic acid [3-((R)-5-amino-3-difluoromethyl-3,6-dihydro-2H-[1,4]oxazin-3-yl)-4-fluoro-phenyl]-amide] was tested, and the IC50 was 0.55 µM.
Compound `COc1ccc(C(=O)Nc2ccc(F)c([C@]3(C(F)F)COCC(N)=N3)c2)nc1` [Example 49, 5-Methoxy-pyridine-2-carboxylic acid [3-((R)-5-amino-3-difluoromethyl-3,6-dihydro-2H-[1,4]oxazin-3-yl)-4-fluoro-phenyl]-amide] has an IC50 of 0.05 µM.
In the case of `C[C@@]1(c2cc(Br)cc(NC(=O)c3ncc(Br)cn3)c2)COCC(N)=N1` [Example 51, 5-Bromo-pyrimidine-2-carboxylic acid [3-((R)-5-amino-3-methyl-3,6-dihydro-2H-[1,4]oxazin-3-yl)-5-bromo-phenyl]-amide hydrochloride], the IC50 is reported as 0.23 µM.
`C[C@@]1(c2cc(Br)cc(NC(=O)c3ccc(Br)cn3)c2)COCC(N)=N1` [Example 52, 5-Bromo-pyridine-2-carboxylic acid [3-((R)-5-amino-3-methyl-3,6-dihydro-2H-[1,4]oxazin-3-yl)-5-bromo-phenyl]-amide] gave an IC50 of 0.18 µM.
In the case of `C[C@@]1(c2cc(Br)cc(NC(=O)c3ccc(C#N)cn3)c2)COCC(N)=N1` [Example 53, 5-Cyano-pyridine-2-carboxylic acid [3-((R)-5-amino-3-methyl-3,6-dihydro-2H-[1,4]oxazin-3-yl)-5-bromo-phenyl]-amide], the IC50 is reported as 0.38 µM.
`Cc1cc(Br)cnc1C(=O)Nc1cc(Br)cc([C@]2(C)COCC(N)=N2)c1` [Example 55, 5-Bromo-3-methyl-pyridine-2-carboxylic acid [3-((R)-5-amino-3-methyl-3,6-dihydro-2H-[1,4]oxazin-3-yl)-5-bromo-phenyl]-amide] showed an IC50 of 0.084 µM.
Work on `C[C@@]1(c2cc(Br)cc(NC(=O)c3ccc(Cl)cn3)c2)COCC(N)=N1` [Example 56, 5-Chloro-pyridine-2-carboxylic acid [3-((R)-5-amino-3-methyl-3,6-dihydro-2H-[1,4]oxazin-3-yl)-5-bromo-phenyl]-amide] yielded an IC50 of 0.101 µM.
Compound `Cc1cnc(C(=O)Nc2cc(Br)cc([C@]3(C)COCC(N)=N3)c2)cn1` [Example 57, 5-Methyl-pyrazine-2-carboxylic acid [3-((R)-5-amino-3-methyl-3,6-dihydro-2H-[1,4]oxazin-3-yl)-5-bromo-phenyl]-amide] has an IC50 of 1.7 µM.
With `Cc1nc(C(=O)Nc2cc(Br)cc([C@]3(C)COCC(N)=N3)c2)c(C)o1` [Example 58, 2,5-Dimethyl-oxazole-4-carboxylic acid [3-((R)-5-amino-3-methyl-3,6-dihydro-2H-[1,4]oxazin-3-yl)-5-bromo-phenyl]amide] the IC50 was 0.78 µM.
In the case of `Cc1nc(C(=O)Nc2cc(Br)cc([C@]3(C)COCC(N)=N3)c2)co1` [Example 59, 2-Methyl-oxazole-4-carboxylic acid [3-((R)-5-amino-3-methyl-3,6-dihydro-2H-[1,4]oxazin-3-yl)-5-bromo-phenyl]-amide], the IC50 is reported as 0.24 µM.
